Measurements published in US20240335465A1 (University of Virginia Patent Foundation, priority 2021, published 2024).
Blank lines part the entries; values can stand above or below the compound they belong to.

What was measured:
cell cycle progression = experiment: Cell cycle analysis by flow cytometry (BrdU, propidium iodide); assay type: cell-based, human
Protocol: Cells were washed with cold PBS and resuspended in 0.5 ml PBS to achieve a single cell suspension. Cells were fixed in a tube containing 4.5 ml 70% ethanol kept at 4° C. overnight. Cells were collected by centrifugation at 500 g for 5 minutes and washed twice with PBS. Washed cells were then stained with 1 ml of freshly prepared staining solution containing propidium iodide (10 μg/ml), DNase-free RNaseA (100 μg/ml), and 0.1% (v/v) Triton X-100 before being subjected to flow cytometry measurement. To determine percentage of cell population in various cell cycle stage, ˜10,000-30,000 cells were acquired on an Attune NxT cytometer and analyzed using FCS Express software. Cell cycle analysis was performed on propidium iodide stained cells and single cell events were determined by gating on the area against the width of the propidium iodide pulse signal. DNA cell cycle modeling and fit was performed using the Multicycle AV plugin (Phoenix Flow Systems).
Cells were fixed and stained to detect BrdU incorporation by flow cytometry following the manufacturer's protocol (FITC BrdU Flow Kit, BD Biosciences, Cat #559619).

DDR signaling [1] = experiment: DDR signaling immunoblot in HEK293 cells; assay type: cell-based, human; details: HEK293, 2 μM KU-55933 1 hr, cGAMP 16 hours
HEK293-TrLR cells = experiment: HDR and NHEJ assay using Traffic Light Reporter; assay type: cell-based, human
Protocol: TrLR-integrated HEK293 cells were selected through exposure to 5 μg/ml puromycin for 2 weeks. […] 8 hours following this procedure, cells were transfected with pCVL SFFV d14GFP Donor (Addgene Cat #31475), pCBASceI (Addgene Cat #26477)), or Donor+SceI using Lipofectamine 3000. 72 hours post-transfection, cells were trypsinized, collected, and analyzed with an Attune NxT flow cytometer (Thermofisher). To quantify the DNA repair events, ˜10,000-30,000 cells were acquired on an Attune NxT cytometer and analyzed using FCS Express software. Single cell events were determined by gating on the area against the width of the forward scatter pulse signal. Debris removal was performed by excluding events with very low forward and side scatter. For determining % of GFP and mCherry positive cells we established positive and negative populations using mock transfections as negative controls and GFP or mCherry transfected samples as Fluorescence Minus One controls.

ATM = ATM (Homo sapiens, UniProt Q13315); details: recombinant ATM and TBK1; 25 μM ATM inhibitor, 10 μM TBK1 inhibitor
DDR signaling [2] = experiment: DDR signaling immunoblotting in THP1 cells; details: for DDR induction in cells lacking STING or TBK1: STING−/− or shTBK1 cells
DDR signaling [3] = experiment: DDR signaling immunoblotting in primary mouse embryonic fibroblasts; details: for DDR signaling (γH2AX): cGAS−/− and cGAS GS198AA primary MEFs vs WT
cGAMP = experiment: 2′3′-cGAMP ELISA in THP1 cells; assay type: cell-based, human; details: WT THP1, 1 μM Doxorubicin, 1 hr
γH2AX = γH2AX immunofluorescence (human RPE, THP1 cells); assay type: cell-based
Protocol: Immunofluorescence Staining: 16,500 adherent cells/cm^2 were plated on a gelatin coated 8-chamber slide (VWR, Catalogue #62407-296) and treated as indicated. Media was removed and cells were washed with 1×PBS with Ca^2+/Mg^2+ and fixed with 4% PFA for 20 minutes. Fixed cells were permeabilized with PBS+0.1% Triton-X and washed 3 times with PBS+0.1% Tween20. After treatment as indicated, non-adherent THP1 cells were collected by centrifugation, washed in cold PBS and fixed in PFA. Post-fixation, they were washed with PBS, spotted on gelatin coated “PTFE” Printed Slides (Electron Microscopy Sciences, Cat #63424-06), and air-dried. For γH2AX staining, permeabilized cells were blocked in Serum-free DAKO Protein Block (Agilent, Catalogue #X0909) for 1 hr at room temperature. Cells were incubated in primary antibody (γH2AX, 1:500; anti-HA, 1:100; Table 1) in DAKO antibody diluent at 4° C. overnight on a rocker platform. U2OS-STING cells undergoing Rad51 staining were first fixed in methanol for 20 minutes in −20° C., blocked for 1 hr with donkey block (2% normal donkey serum, 1% BSA, 0.1% Triton X 100, 0.05% Tween20, 0.05% Sodium Azide in PBS), then finally incubated in an anti-Rad51 antibody overnight at 4° C. (Bio-academia Cat #70-001, 1:6000 in 5% milk in TBST). For RPA70 staining, cells were fixed in 4% PFA at room temperature for 20 minutes and blocked in Cell Signaling blocking buffer (1×PBS/5% normal donkey serum/0.3% Triton™ X-100) for 1 hr in room temperature then incubated in an RPA70 antibody (Cell Signaling Cat #2267, 1:50 in blocking buffer) overnight at 4° C. Primary antibody was washed 3 times and incubated with secondary antibodies (Invitrogen, Alexa 555, 488) for 1 hr at room temperature. Coverslips were mounted on the cells with ProLong™ Gold Antifade mounting media with DAPI (Thermofisher, Catalogue #P36935). All images were obtained by confocal microscopy (Nikon, C2).

cGAS [4] = experiment: HA-cGAS co-immunoprecipitation in HA-cGAS-reconstituted cGAS−/− MEFs; assay type: cell-based, mouse; details: doxorubicin 2 μM 6 hours
Protocol: Immunoprecipitation: Cells were treated as indicated and were lysed in RIPA buffer. Co-immunoprecipitation experiments were conducted using Dynabeads™ Protein G Immunoprecipitation Kits (Thermo Fisher, Catalogue #10007D) as per the manufacturer's protocol. 50 μl of Dynabead slurry was added to a microfuge tube and placed on a magnet to separate the solution. Beads were washed in 200 μl PBS with 0.1% Tween20 (3 times) before 5 μg antibody along with […] protein lysate diluted in PBS-tween20 to a final volume of 500 μl was added to the beads and incubated overnight at 4° C. with rotation. Beads were collected by magnetic separation and washed 3 times with wash buffer (10 mM Tris; adjust to pH 7.4, 1 mM EDTA; pH 8.0, 150 mM NaCl). Finally, bead-bound proteins were eluted by boiling in 1× Laemmli buffer and samples analyzed by western blotting.

Crassostrea virginica = experiment: DDR in oysters after adductor muscle injection; assay type: in vivo; details: hemocytes; cGAMP 25 μg/50 gm, doxorubicin 1 μg/50 gm oyster weight, 16 hours
Protocol: Oysters: Wild adult eastern oysters (Crassostrea virginica) of both male and female sexes ranging from 2 cm-7 cm in length (1 to 3 years in age) were collected from a natural oyster reef on Virgnia's Eastern Shore. Following collection, the diploid oysters were placed on ice and transported approximately 3 h to the University of Virginia main campus in Charlottesville, VA. There they were stored in an aerated aquarium containing water supplemented with Instant Ocean® Aquarium Sea Salt (50 gm/l). […] Treated oysters were kept at 4° C. in the dark for 16 hours after which they were shucked, had their hemolymph/tissues harvested for analysis by western blotting, and dead oyster and shell were disposed of.

Nematostella vectensis = experiment: DDR in starlet sea anemones; assay type: in vivo; details: whole animals; cGAMP in digitonin solution 10 minutes; doxorubicin 2 μM; 16 hours
Text: Starlet sea anemones: Wild type, laboratory maintained, Self-sustaining Nematostella vectensis culture containing of 3-6 months old male and female animals (Putnam et al., 2007) was a kind gift from Timothy J. Jegla (Penn State University Department of Biology). They were maintained in 6-well plates containing water with Instant Ocean® Aquarium Sea Salt (50 gm/l) and fed brine shrimp. […] Permeabilization solution was removed and the animals returned to maintenance sea salt water. Doxorubicin was added to the maintenance sea salt water to a final concentration of 2 μM. 16 hours post treatment. N. vectensis were collected and washed once with cold PBS before the addition of 200 μl RIPA buffer. Samples were homogenized by sonication and centrifuged at 4° C. to remove debris. Soluble lysates were quantified for protein analysis by western blot.

cGAS, STING, and TBK1 = details: doxorubicin 2 μM 6 hours; cGAMP 16 hours
PARylation = experiment: PolyADP-ribosylation (PARylation) immunoblot; assay type: cell-based, human; details: THP1, 2 mM NAM 18 hours, 250 μM H2O2 10 minutes
Text: Cells were collected by centrifugation, washed once with ice-cold PBS, lysed in RIPA buffer and analyzed by western blot to detect PARylation using pADPr Antibody (Santa Cruz sc-56198).

PARP = PARP activity assay; assay type: cell-based, human
Protocol: Post cGAMP treatment, cells were collected by centrifugation and washed with cold PBS once and resuspended in Cell Extraction Buffer. PARP activity was measured using the Chemiluminescent Assay Kit (R&D, Catalog Number: 4685-096-K) following manufacturer's protocol.

NAD^+ = experiment: NAD+ quantification; assay type: cell-based, human; details: THP1, 2 mM, 4 mM and 8 mM NAM, 18 hours
cGAS [5] = details: Liu et al., 2018; cited from earlier work
U2OS-STING cells = experiment: RAD51 and RPA70 foci in EdU+ U2OS-STING cells; assay type: cell-based, human; details: EdU-positive S-phase cells, Camptothecin 5 μM 16 hours
Protocol: Immunofluorescence Staining: 16,500 adherent cells/cm^2 were plated on a gelatin coated 8-chamber slide (VWR, Catalogue #62407-296) and treated as indicated. Media was removed and cells were washed with 1×PBS with Ca^2+/Mg^2+ and fixed with 4% PFA for 20 minutes. Fixed cells were permeabilized with PBS+0.1% Triton-X and washed 3 times with PBS+0.1% Tween20. After treatment as indicated, non-adherent THP1 cells were collected by centrifugation, washed in cold PBS and fixed in PFA. Post-fixation, they were washed with PBS, spotted on gelatin coated “PTFE” Printed Slides (Electron Microscopy Sciences, Cat #63424-06), and air-dried. For γH2AX staining, permeabilized cells were blocked in Serum-free DAKO Protein Block (Agilent, Catalogue #X0909) for 1 hr at room temperature. Cells were incubated in primary antibody (γH2AX, 1:500; anti-HA, 1:100; Table 1) in DAKO antibody diluent at 4° C. overnight on a rocker platform. […]
EdU incorporated cells were detected by confocal microscopy after Click-iT® EdU labeling following the manufacturer's protocol (Click-iT™ EdU Alexa Fluor™ 594 Imaging Kit, Thermo Fisher Cat #C10339).

ATM, sequence (Q13315 whole entry): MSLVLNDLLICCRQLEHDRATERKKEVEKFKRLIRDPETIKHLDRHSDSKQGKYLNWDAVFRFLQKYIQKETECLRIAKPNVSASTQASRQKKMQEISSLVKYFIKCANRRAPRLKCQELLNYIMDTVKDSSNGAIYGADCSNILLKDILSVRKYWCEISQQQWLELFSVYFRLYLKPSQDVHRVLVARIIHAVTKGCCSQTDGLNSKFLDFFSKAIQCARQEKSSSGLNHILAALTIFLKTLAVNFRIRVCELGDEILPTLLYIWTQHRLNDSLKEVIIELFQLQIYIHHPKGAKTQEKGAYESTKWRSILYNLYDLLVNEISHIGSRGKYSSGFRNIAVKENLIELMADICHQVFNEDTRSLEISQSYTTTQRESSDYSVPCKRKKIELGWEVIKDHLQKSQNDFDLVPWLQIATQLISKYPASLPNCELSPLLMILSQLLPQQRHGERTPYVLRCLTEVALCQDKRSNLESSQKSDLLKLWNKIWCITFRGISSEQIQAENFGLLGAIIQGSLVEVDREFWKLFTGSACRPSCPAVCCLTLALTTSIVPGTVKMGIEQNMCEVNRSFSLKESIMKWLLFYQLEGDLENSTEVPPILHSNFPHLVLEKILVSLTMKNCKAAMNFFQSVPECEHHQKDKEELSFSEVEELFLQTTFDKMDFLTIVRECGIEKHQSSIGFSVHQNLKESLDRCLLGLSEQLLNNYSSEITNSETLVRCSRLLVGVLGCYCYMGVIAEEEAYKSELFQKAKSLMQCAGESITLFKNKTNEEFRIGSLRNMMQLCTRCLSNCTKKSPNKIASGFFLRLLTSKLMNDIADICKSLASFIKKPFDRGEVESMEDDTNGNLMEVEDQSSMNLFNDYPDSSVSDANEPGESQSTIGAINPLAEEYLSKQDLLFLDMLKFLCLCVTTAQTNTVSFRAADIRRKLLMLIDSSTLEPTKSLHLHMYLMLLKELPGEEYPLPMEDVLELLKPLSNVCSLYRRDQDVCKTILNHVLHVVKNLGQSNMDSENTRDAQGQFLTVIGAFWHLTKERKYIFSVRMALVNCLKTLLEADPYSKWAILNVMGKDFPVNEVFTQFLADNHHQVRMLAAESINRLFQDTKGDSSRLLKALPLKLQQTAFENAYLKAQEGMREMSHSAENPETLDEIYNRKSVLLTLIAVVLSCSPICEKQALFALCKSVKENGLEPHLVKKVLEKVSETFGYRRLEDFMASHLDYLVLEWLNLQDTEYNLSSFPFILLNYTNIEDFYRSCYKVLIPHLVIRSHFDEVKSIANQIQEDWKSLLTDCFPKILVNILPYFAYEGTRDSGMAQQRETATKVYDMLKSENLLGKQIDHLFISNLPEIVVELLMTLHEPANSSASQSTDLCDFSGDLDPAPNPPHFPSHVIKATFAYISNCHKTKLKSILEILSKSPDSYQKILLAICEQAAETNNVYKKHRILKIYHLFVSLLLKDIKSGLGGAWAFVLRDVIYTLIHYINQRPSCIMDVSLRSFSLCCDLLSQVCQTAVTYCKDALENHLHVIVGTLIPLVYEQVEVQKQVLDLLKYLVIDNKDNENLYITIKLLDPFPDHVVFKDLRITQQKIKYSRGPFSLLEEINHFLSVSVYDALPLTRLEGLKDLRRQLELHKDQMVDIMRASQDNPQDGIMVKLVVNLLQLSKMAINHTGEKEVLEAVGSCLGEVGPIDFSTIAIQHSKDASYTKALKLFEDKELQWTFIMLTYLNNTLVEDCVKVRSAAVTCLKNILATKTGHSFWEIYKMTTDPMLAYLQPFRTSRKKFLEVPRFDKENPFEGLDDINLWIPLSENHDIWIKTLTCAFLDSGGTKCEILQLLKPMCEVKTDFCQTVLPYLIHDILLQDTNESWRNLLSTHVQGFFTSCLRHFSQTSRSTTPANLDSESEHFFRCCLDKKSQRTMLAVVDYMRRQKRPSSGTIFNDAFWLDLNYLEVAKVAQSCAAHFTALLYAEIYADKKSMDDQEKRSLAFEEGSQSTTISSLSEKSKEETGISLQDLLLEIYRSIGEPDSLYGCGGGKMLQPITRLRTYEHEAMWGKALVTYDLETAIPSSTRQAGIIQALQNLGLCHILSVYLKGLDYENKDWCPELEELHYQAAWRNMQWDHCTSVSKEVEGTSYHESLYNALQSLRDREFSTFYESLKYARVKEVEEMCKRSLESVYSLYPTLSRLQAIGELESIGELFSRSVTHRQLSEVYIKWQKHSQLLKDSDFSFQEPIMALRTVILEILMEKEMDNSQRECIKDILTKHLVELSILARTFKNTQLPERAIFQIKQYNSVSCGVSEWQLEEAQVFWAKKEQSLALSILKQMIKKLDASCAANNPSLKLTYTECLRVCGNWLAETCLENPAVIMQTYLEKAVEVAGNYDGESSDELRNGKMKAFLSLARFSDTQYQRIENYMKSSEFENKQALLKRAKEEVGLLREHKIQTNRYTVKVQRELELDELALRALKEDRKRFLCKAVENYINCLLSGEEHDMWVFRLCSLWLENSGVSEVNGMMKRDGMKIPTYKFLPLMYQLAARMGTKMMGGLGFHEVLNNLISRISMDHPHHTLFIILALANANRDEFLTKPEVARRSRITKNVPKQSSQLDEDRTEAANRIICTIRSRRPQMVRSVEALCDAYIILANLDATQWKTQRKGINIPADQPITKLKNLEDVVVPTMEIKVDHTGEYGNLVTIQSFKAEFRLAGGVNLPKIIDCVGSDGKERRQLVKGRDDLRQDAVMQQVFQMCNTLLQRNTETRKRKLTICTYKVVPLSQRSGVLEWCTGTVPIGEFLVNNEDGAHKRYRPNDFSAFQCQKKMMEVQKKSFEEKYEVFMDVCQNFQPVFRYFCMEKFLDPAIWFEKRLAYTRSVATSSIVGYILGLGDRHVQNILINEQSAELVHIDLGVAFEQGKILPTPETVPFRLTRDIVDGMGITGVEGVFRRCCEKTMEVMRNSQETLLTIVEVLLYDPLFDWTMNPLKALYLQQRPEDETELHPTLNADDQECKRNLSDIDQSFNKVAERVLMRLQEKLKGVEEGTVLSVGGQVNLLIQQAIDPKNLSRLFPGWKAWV

ATM phosphorylation on Ser1981 (ATM): suppressed
Compound: O=c1cc(-c2cccc3c2Sc2ccccc2S3)oc(N2CCOCC2)c1 [KU55933]
effect of ATM inhibitor on cGAMP-induced G1 arrest (cell cycle progression; WT THP1, 25 μM KU-55933, cGAMP 24 hours): suppressed the ability of cGAMP to induce γH2AX and pCHK2 (FIG. 9A) and to induce G1 arrest
effect on cGAMP-induced γH2AX and pCHK2 (DDR signaling [1]): suppressed the ability of cGAMP to induce γH2AX and pCHK2
HDR under ATM inhibition alone (HEK293-TrLR cells; 25 μM KU-55933): impeded HDR in its own right

ATM phosphorylation on Ser1981 (ATM): suppressed
Compound: O=C(NCCCNc1nc(Nc2cccc(CN3CCOCC3)c2)ncc1C1CC1)C1CCC1 [MRT67307]
effect on cGAMP-induced phosphorylation of ATM (S1981), CHK2, and H2AX (DDR signaling [2]; THP1 pretreated with 2 μM TBK1 inhibitor, cGAMP 16 hours): suppressed cGAMP-induced phosphorylation of ATM (S1981), CHK2, and H2AX

Compound: CC[C@@]1(O)C(=O)OCc2c1cc1n(c2=O)Cc2cc3ccccc3nc2-1 [camptothecin]
DDR induction in cells lacking STING or TBK1 (DDR signaling [2]): abrogated
phosphorylation of H2AX, ATM, and CHK2 (DDR signaling [2]; cGAS−/− THP1, camptothecin 2 μM 4 hours): all suppressed
DDR signaling (γH2AX) (DDR signaling [3]): suppressed both in cGAS^−/− and cGAS^(GS198AA) primary MEFs

Compound: COc1cccc2c1C(=O)c1c(O)c3c(c(O)c1C2=O)C[C@@](O)(C(=O)CO)C[C@@H]3O[C@H]1C[C@H](N)[C@H](O)[C@H](C)O1 [doxorubicin]
cGAMP production (cGAMP): reacted by producing cGAMP
γH2AX foci in cGAS- and STING-deficient cells (γH2AX; doxorubicin-treated THP1 cells): significant reduction in the intensity of γH2AX foci
γH2AX staining pattern (γH2AX; human RPE cells, doxorubicin 2 hours, cGAMP or HT-DNA 6 hours): catalyzed the formation of γH2AX foci characteristic of DSB induction
cGAS association with ATM (cGAS [4]): detected no such interactions
cGAS complex with γH2AX (cGAS [4]): nuclear translocated cGAS was found in a complex with γH2AX
TBK1 phosphorylation (pTBK1) (Crassostrea virginica): TBK1 phosphorylation
γH2AX (Crassostrea virginica): elevated levels of γH2AX
TBK1 phosphorylation (pTBK1) (Nematostella vectensis): TBK1 phosphorylation
γH2AX (Nematostella vectensis): elevated levels of γH2AX
nuclear enrichment of TBK1, pTBK1, STING (cGAS, STING, and TBK1): promoted nuclear enrichment of TBK1 but not STING
nuclear enrichment of cGAS (cGAS, STING, and TBK1): nuclear enrichment of cGAS
DDR induction in cells lacking STING or TBK1 (DDR signaling [2]): abrogated
DDR signaling (γH2AX) (DDR signaling [3]): suppressed both in cGAS^−/− and cGAS^(GS198AA) primary MEFs

Compound: NC(=O)c1cccnc1 [nicotinamide]
effect on cGAMP-driven inhibition of HDR (HEK293-TrLR cells; 2 mM and 4 mM NAM): abrogated cGAMP-driven inhibition of protein PARylation and HDR
effect on cGAMP-driven inhibition of protein PARylation (PARylation): abrogated cGAMP-driven inhibition of protein PARylation and HDR
effect on cGAMP-driven inhibition of cellular PARP enzymatic activity (PARP; THP1, 2 mM, 4 mM and 8 mM NAM, 18 hours): overcame cGAMP-driven inhibition of cellular PARP enzymatic activity
cellular NAD^+ levels with nicotinamide supplementation (NAD^+): Boosting cellular NAD^+ levels

Compound: O=C(c1cc(Cc2n[nH]c(=O)c3ccccc23)ccc1F)N1CCN(C(=O)C2CC2)CC1 [olaparib]
cGAS-PARP1 interactions and DNA damage-induced nuclear cGAS translocation (cGAS [5]): blocked

Compound: CNCc1ccc(-c2[nH]c3cc(F)cc4c3c2CCNC4=O)cc1 [rucaparib]
abundance of S/G2-phase cells (cell cycle progression; THP1 10 μM Rucaparib (propidium iodide), U2OS-STING (EdU)): causes increased abundance of S/G2-phase cells
HDR (HEK293-TrLR cells; 1 μM PARP inhibitor (Rucaparib)): significantly reduced HDR in TrLR reporter cells
DNA damage-induced RAD51 and RPA foci formation (U2OS-STING cells): suppressed DNA damage-induced RAD51 and RPA foci formation in EdU-positive S-phase cells
PARP enzymatic activity in cell lysates (PARP; THP1, cGAMP 6 hours, Rucaparib 10 μM, 6 hr): lower PARP enzymatic activity

Compound: Pam3CSK4
DDR activation (γH2AX) (DDR signaling [3]; WT primary MEF, Pam3CSK4 500 ng/ml 6 hours, HT-DNA 4 ug/6-well 6 hours, 5′ppp-dsRNA 0.5 μg/6 well 6 hours, cGAMP 16 hours): failed to stimulate the DDR
